Experimental data as given in US6855710B2, “Substituted indolines with an inhibitory effect on various kinases and complexes of CDKs” (Boehringer Ingelheim Pharma KG, priority 1998, dated 2005).

melting point | SMILES
261 to 263 °C | CN(C)C(=O)c1cccc(N/C(=C2\C(=O)Nc3ccccc32)c2ccccc2)c1 [Example 22, (Z)-3-[1-(3-dimethylaminocarbonyl-phenylamino)-1-phenyl-methylidene]-2-indolinone]
270 °C (dec.) | CS(=O)(=O)N(CC(=O)O)c1cccc(N/C(=C2\C(=O)Nc3ccccc32)c2ccccc2)c1 [Example 318, (Z)-3-{1-[3-(N-carboxymethyl-N-methylsulphonyl-amino)-phenylamino]-1-phenyl-methylidene}-2-indolinone]
246 to 248 °C | O=C(CN1CCOCC1)Nc1ccc(N/C(=C2\C(=O)Nc3ccccc32)c2ccccc2)cc1 [Example 43, (Z)-3-[1-(4-morpholinomethylcarbonylamino-phenylamino)-1-phenyl-methylidene]-2-indolinone]
170 °C | O=C1Nc2ccc(Br)cc2/C1=C(/Nc1ccc(CN2CCCCC2)cc1)c1ccccc1 [Example 450, (Z)-3-[1-(4-piperidinomethyl-phenylamino)-1-phenyl-methylidene]-5-bromo-2-indolinone]
214 to 216 °C | CN(C)CCS(=O)(=O)Nc1ccc(N/C(=C2\C(=O)Nc3ccccc32)c2ccccc2)cc1 [Example 379, (Z)-3-{1-[4-(2-dimethylamino-ethylsulphonylamino)-phenylamino]-1-phenyl-methylidene}-2-indolinone]
216 to 217 °C | CN(Cc1ccc(N/C(=C2\C(=O)Nc3ccc([N+](=O)[O-])cc32)c2ccccc2)cc1)C1CC1 [Example 275, (Z)-3-{1-[4-((N-cyclopropyl-N-methyl-amino)-methyl)-phenylamino]-1-phenyl-methylidene}-5-nitro-2-indolinone]
178 to 180 °C | COCC(=O)NCc1ccc(N/C(=C2\C(=O)Nc3ccccc32)c2ccccc2)cc1 [Example 76, (Z)-3-[1-(4-methoxymethylcarbonylaminomethyl-phenylamino)-1-phenyl-methylidene]-2-indolinone]
168 to 170 °C | CN(CC(=O)O)C(=O)c1ccc(N/C(=C2\C(=O)Nc3ccccc32)c2ccccc2)cc1 [Example 395, (Z)-3-{1-[4-(N-carboxymethyl-N-methyl-aminocarbonyl)-phenylamino]-1-phenyl-methylidene}-2-indolinone]
277 to 280 °C | CN(C)C(=O)CN(c1ccc(N/C(=C2\C(=O)Nc3ccc([N+](=O)[O-])cc32)c2ccccc2)cc1)S(C)(=O)=O [Example 201, (Z)-3-{1-[4-(N-dimethylaminocarbonylmethyl-N-methylsulphonyl-amino)-phenylamino]-1-phenyl-methylidene}-5-nitro-2-indolinone]
215 °C (dec.) | COC(=O)C(N)Cc1ccc(N/C(=C2\C(=O)Nc3ccc([N+](=O)[O-])cc32)c2ccccc2)cc1.Cl (stereo not shown)
328 to 330 °C | CC(=O)Nc1ccc(N/C(=C2\C(=O)Nc3ccc([N+](=O)[O-])cc32)c2ccccc2)cc1 [Example 93, (Z)-3-[1-(4-acetylamino-phenylamino)-1-phenyl-methylidene]-5-nitro-2-indolinone]
225 to 227 °C | O=C1Nc2ccccc2/C1=C(/Nc1ccc(NS(=O)(=O)CCN2CCCCC2)cc1)c1ccccc1 [Example 380, (Z)-3-{1-[4-(2-piperidinoethylsulphonylamino)-phenylamino]-1-phenyl-methylidene}-2-indolinone]
197 to 199 °C | CC(=O)N(CCN(C)C)c1ccc(N/C(=C2\C(=O)Nc3ccccc32)c2ccccc2)cc1 [Example 340, (Z)-3-{1-[4-(N-(2-dimethylaminoethyl)-N-acetyl-amino)-phenylamino]-1-phenyl-methylidene}-2-indolinone]
274 to 277 °C | CCC(=O)N(CC(=O)N(C)C)c1ccc(N/C(=C2\C(=O)Nc3ccccc32)c2ccccc2)cc1 [Example 359, (Z)-3-{1-[4-(N-dimethylaminocarbonylmethyl-N-propionyl-amino)-phenylamino]-1-phenyl-methylidene}-2-indolinone]
230 to 233 °C | COc1ccc(/C(Nc2ccc(CN3CCCCC3)cc2)=C2/C(=O)Nc3ccc([N+](=O)[O-])cc32)cc1 [Example 441, (Z)-3-[1-(4-piperidinomethyl-phenylamino)-1-(4-methoxyphenyl)-methylidene]-5-nitro-2-indolinone]
231 °C | O=CNc1cccc(N/C(=C2\C(=O)Nc3ccccc32)c2ccccc2)c1 [Example 30, (Z)-3-[1-(3-formylamino-phenylamino)-1-phenyl-methylidene]-2-indolinone]
247 to 248 °C | CNc1cccc(N/C(=C2\C(=O)Nc3ccccc32)c2ccccc2)c1 [Example 37, (Z)-3-[1-(3-methylamino-phenylamino)-1-phenyl-methylidene]-2-indolinone]
265 to 268 °C | CCOC(=O)CCCN(c1ccc(N/C(=C2\C(=O)Nc3ccccc32)c2ccccc2)cc1)S(C)(=O)=O [Example 195, (Z)-3-{1-[4-(N-(3-ethoxycarbonyl-propyl)-N-methylsulphonyl-amino)-phenylamino]-1-phenyl-methylidene}-2-indolinone]
163 °C | CNC(=O)CN(c1cccc(N/C(=C2\C(=O)Nc3ccccc32)c2ccccc2)c1)S(C)(=O)=O [Example 320, (Z)-3-{1-[3-(N-methylaminocarbonylmethyl-N-methylsulphonyl-amino)-phenylamino]-1-phenyl-methylidene}-2-indolinone]
116 to 118 °C | CN(CCN1CCOCC1)CC(=O)N(C)c1ccc(N/C(=C2\C(=O)Nc3ccccc32)c2ccccc2)cc1 [Example 374, (Z)-3-{1-[4-(N—(N-(2-morpholinoethyl)-N-methyl-aminomethyl-carbonyl)-N-methylamino)-phenylamino]-1-phenyl-methylidene}-2-indolinone]
127 to 129 °C | O=C1Nc2ccccc2/C1=C(/Nc1ccc(C(=O)N2CCCC2)cc1)c1ccccc1 [Example 386, (Z)-3-{1-[4-(pyrrolidin-1-ylcarbonyl)-phenylamino]-1-phenyl-methylidene}-2-indolinone]
215 °C | CN(Cc1ccc(N/C(=C2\C(=O)Nc3ccc([N+](=O)[O-])cc32)c2ccccc2)cc1)C1CCCCC1 [Example 232, (Z)-3-{1-[4-(N-cyclohexyl-N-methyl-aminomethyl)-phenylamino]-1-phenyl-methylidene}-5-nitro-2-indolinone]
287 to 288 °C | CC(=O)N(C)c1ccc(N/C(=C2\C(=O)Nc3ccccc32)c2ccccc2)cc1 [Example 47, (Z)-3-{1-[4-(N-acetyl-N-methyl-amino)-phenylamino]-1-phenyl-methylidene}-2-indolinone]
217 to 222 °C | O=C1Nc2ccc([N+](=O)[O-])cc2/C1=C(/Nc1ccc(CCN2CCCCCC2)cc1)c1ccccc1 [Example 265, (Z)-3-{1-[4-(2-hexamethyleneimino-ethyl)-phenylamino]-1-phenyl-methylidene}-5-nitro-2-indolinone]
258 to 263 °C | NC(=O)c1cccc(N/C(=C2\C(=O)Nc3ccccc32)c2ccccc2)c1 [Example 10, (Z)-3-{1-[3-(aminocarbonyl)phenylamino]-1-phenyl-methylidene}-2-indolinone]
274 to 277 °C | O=C1Nc2ccc([N+](=O)[O-])cc2/C1=C(/Nc1ccc(CNc2ccccc2)cc1)c1ccccc1 [Example 233, (Z)-3-{1-[4-(phenylaminomethyl)-phenylamino]-1-phenyl-methylidene}-5-nitro-2-indolinone]
229 °C | CC(=O)N(CCN1CCOCC1)c1ccc(N/C(=C2\C(=O)Nc3ccc([N+](=O)[O-])cc32)c2ccccc2)cc1 [Example 334, (Z)-3-{1-[4-(N-(2-morpholinoethyl)-N-acetyl-amino)-phenylamino]-1-phenyl-methylidene}-5-nitro-2-indolinone]
233 to 235 °C | CCOC(=O)CNC(=O)c1cccc(N/C(=C2\C(=O)Nc3ccccc32)c2ccccc2)c1 [Example 23, (Z)-3-[1-(3-ethoxycarbonylmethylaminocarbonyl-phenylamino)-1-phenyl-methylidene]-2-indolinone]
181 to 183 °C | CN(C)CCN(C)C(=O)c1ccc(N/C(=C2\C(=O)Nc3ccccc32)c2ccccc2)cc1 [Example 391, (Z)-3-{1-[4-(N-(2-dimethylaminoethyl)-N-methyl-aminocarbonyl)-phenylamino]-1-phenyl-methylidene}-2-indolinone]
252 to 254 °C | CCN(CC)S(=O)(=O)c1ccc(N/C(=C2\C(=O)Nc3ccccc32)c2ccccc2)cc1 [Example 398, (Z)-3-{1-[4-(diethylaminosulphonyl)-phenylamino]-1-phenyl-methylidene}-2-indolinone]

SMILES | melting point
CC(C)(C)OC(=O)NCCc1ccc(N/C(=C2\C(=O)Nc3ccc([N+](=O)[O-])cc32)c2ccc(CN)cc2)cc1 [Example 155, (Z)-3-{1-[4-(2-tert.butoxycarbonylamino-ethyl)-phenylamino]-1-(4-aminomethyl-phenyl)-methylidene}-5-nitro-2-indolinone] | 215 to 217 °C (dec.)
COC(=O)C(Cc1ccc(N/C(=C2\C(=O)Nc3ccc([N+](=O)[O-])cc32)c2ccccc2)cc1)NC(=O)OC(C)(C)C (stereo not shown) [Example 225, (Z)-3-{1-[4-(2-tert.butoxycarbonylamino-2-methoxycarbonyl-ethyl)-phenylamino]-1-phenyl-methylidene}-5-nitro-2-indolinone] | 139 °C
CC(=O)NCc1ccc(/C(Nc2ccc(CCNC(=O)OC(C)(C)C)cc2)=C2/C(=O)Nc3ccc([N+](=O)[O-])cc32)cc1 [Example 157, (Z)-3-{1-[4-(2-tert.butoxycarbonylamino-ethyl)-phenylamino]-1-(4-acetylaminomethyl-phenyl)-methylidene}-5-nitro-2-indolinone] | 94 °C (dec.)
CC(C)(C)OC(=O)NCc1cccc(N/C(=C2\C(=O)Nc3ccccc32)c2ccccc2)c1 [Example 67, (Z)-3-[1-(3-tert.butoxycarbonylaminomethyl-phenylamino)-1-phenyl-methylidene]-2-indolinone] | 190 to 195 °C
